The numbers were not newly measured in US6642378B1, “Process for the synthesis of beta-lactam derivatives” (Antibioticos S.p.A., priority 1999, dated 2003), which cites them from elsewhere.

Like-named read-outs stand apart in the source and are kept apart here.

For data set [1] the following is noted: data from MSDS (Material Safety Data Sheet)—OHS.
[2] abbreviates: oral, data from MSDS (Material Safety Data Sheet)—OHS.

On to `COC(C)=O` [Methyl acetate], for which the Flash point in data set [1] is −10.0 °C. Moreover, in the data set on rat (in vivo, po), the “oral DL50 rat” value is 5480 mg/kg.

With `COC(=O)OC` [Dimethylcarbonate], the Flash point in data set [1] is 21.7 °C. In the data set with rat (in vivo, po), the “oral DL50 rat” value was 13000 mg/kg.

Consider `C1CCOC1` [Tetrahydrofuran], for which, in data set [1], the Flash point was −17.2 °C. In the data set on rat (setting [2]), the “oral DL50 rat” value was 2816 mg/kg.

For `CCOC(=O)OCC` [Diethylcarbonate], the Flash point in data set [1] is 33.0 °C. In addition, the “oral DL50 rat” value with rat (in vivo, po) is 15000 mg/kg.

`CC(C)=O` [Acetone]: the Flash point in data set [1] is −18.0 °C. In the data set on rat (setting [2]), the “oral DL50 rat” value is 5800 mg/kg.

Turning to `CCOC(C)=O` [Ethyl acetate], in data set [1], the Flash point is −4.0 °C. Moreover, the “oral DL50 rat” value in the data set with rat (setting [2]) is 5620 mg/kg.
